The test system of data set [1] is Desulfovibrio vulgaris biofilm. Format: cell-based, Desulfovibrio vulgaris DSM 644. Particulars: 6 h preincubation, then peptide (1 mg/mL to 1.95 µg/mL, twofold dilution), further 66 h, 37°C anaerobic; polished steel rivets; consistent for OD600 and OD570 (crystal violet); n = 3 per concentration. On the procedure:
D. vulgaris DSM 644 was cultivated in Postgate medium (DSMZ medium 63) with a modification of 0.004 g/L FeSO4 × 7H2O and 0.3 g/L trisodium citrate. The medium was flushed with nitrogen gas. Incubation was performed at 37°C without shaking. Steel […]660 4 × 15 mm (Würth-Gruppe) served as the growth surface. These were applied in the following pretreated stages: (1) mechanically untreated; (2) roughened: two turns with silicon carbide sandpaper with a grit size of 180; (3) polished: two turns with silicon carbide sandpaper with a sequential grit size of 320, 400, 600, 800, and 1200. The steel […] cleaned in acetone, 2-propanol, and ethanol (Carl Roth GmbH & Co. KG) for 5 min each using an ultrasonic bath, frequency 47 KHz (Branson Ultrasonic Corporation). […] Routine measurements of OD600 and OD570 were performed using the InfiniteM[…] plate reader (Tecan Group AG). For measurements in the anaerobic chamber, OD600 was measured with a Stratus microplate reader (Cerillo Inc.). […] Figure 2 Minimum biofilm inhibitory concentration (MBIC) assay for Desulfovibrio vulgaris: OD600 and OD570 of the challenge plate (72 h incubation) for different concentrations of four antimicrobial peptides: […]-33, Bactenecin, […]1 (black striped), and uninhibited sample (gray); mean and standard deviation were determined by propagation of error; asterisks indicate significant reduction (p = 0.005).

The subject of data set [2] is Desulfovibrio vulgaris biofilm. The format is cell-based, Desulfovibrio vulgaris DSM 644. On the procedure: D. vulgaris DSM 644 was cultivated in Postgate medium (DSMZ medium 63) with a modification of 0.004 g/L FeSO4 × 7H2O and 0.3 g/L trisodium citrate. The medium was flushed with nitrogen gas. Incubation was performed at 37°C without shaking. The preparation of the MBEC assay was similar to the MBIC. A measure of 120 μL of bacterial suspension was added per well as growth check (n = 8) or as AMP test (n = 6 per AMP concentration) and 120 μL of medium as sterile control (n = 8). The microtiter plate was incubated for 72 h. Afterward, the […] transferred to the challenge plate consisting of 120 μL of AMP solution (1 mg/mL to 1.95 μg/mL), 120 μL of medium for growth check (n = 8), 120 μL of medium (n = 4) or 120 μL of water (n = 2) or 120 μL of AMP with a concentration of 1 mg/mL (n = 2) for sterile control (in Figure A3, a pipetting scheme is shown). Incubation was performed for 24 h. The […] washed with 0.9% NaCl and half of them were stained with crystal violet (see MBIC). The other half was transferred to the recovery plate containing 120 μL of medium per well and placed in the ultrasonic bath for 30 min. The […] removed and the microtiter plate was incubated for 48 h. After the incubation period of 48 h, OD600 was measured. An overview of the individual steps of the MBIC/MBEC assay is shown in Figure 1.  Figure 5 Minimum biofilm eradication concentration (MBEC) assay for Desulfovibrio vulgaris: OD600 of the recovery plate (48 h incubation) and OD570 of the challenge plate (72 h incubation) for different concentrations of four antimicrobial peptides: […]-33, Bactenecin, […]1 (black striped), and uninhibited sample (gray); mean and standard deviation were determined by error propagation; asterisk indicates significant reduction (p = 0.005).

The nature of data set [3]: in vitro. As to conditions: cells or culture medium. Format: in vitro ADME. As to the method:
Figure 4 Long-term stability for the peptide […]1 in Postgate C medium (black) and in the supernatant of a 7-day-old culture of Desulfovibrio vulgaris (gray), analyzed with reversed-phase high-performance liquid chromatography; 100% peptide content corresponds with the peptide content at 0 h. Values are shown as means with standard deviation, n = 3.

Ends that are not written are not given here. Peptide text beside a SMILES is read from it.

Turning to `CC[C@H](C)[C@H](NC(=O)[C@H](CCCNC(=N)N)NC(=O)[C@H](CS)NC(=O)[C@H](CC(C)C)NC(=O)[C@@H](N)CCCNC(=N)N)C(=O)N[C@H](C(=O)N[C@H](C(=O)N[C@H](C(=O)N[C@@H](CCCNC(=N)N)C(=O)N[C@H](C(=O)N[C@@H](CS)C(=O)N[C@@H](CCCNC(=N)N)C(=O)O)C(C)C)[C@@H](C)CC)C(C)C)C(C)C` [Bactenecin] (H-RLCRIVVIRVCR-OH; N-terminus and C-terminus assumed), in data set [1], the MBIC95% result was “no biofilm inhibitory effects”. For the same compound, the “Lowest peptide concentration with complete removal of the biofilm (total biofilm mass, OD570)” value in data set [2] (72 h biofilm on steel rivets, challenge with peptide, crystal violet staining, OD570) is on record as 500 µg/mL. Further, the “Effect on OD600 of recovery plate below the MBEC95%” value in data set [2] (peptide concentrations 250 and 125 µg/mL) is reported as “partial effect”. Also, the “Removal of total biofilm mass (OD570) at lower concentrations” value in data set [2] (peptide concentrations 250 and 125 µg/mL, crystal violet, OD570) was “partial removal”.

With FFGKVLKLIRKIF [DASamP1], in data set [3], the amount remaining at 168 h amounted to 70% and the fraction remaining at 504 h was 56%.

What is called fraction remaining is what is left of the initial amount, in per cent. Read a low fraction remaining as a greater loss.

These data come from paper PMC10441178, “Antibiofilm assay for antimicrobial peptides combating the sulfate‐reducing bacteria Desulfovibrio vulgaris” (MicrobiologyOpen, 2023).
